Data published in PubChem BioAssay (NCI).
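Cells were grown in 96-well plates and exposed to each compound for 48 hours at five concentrations; endpoints were interpolated linearly between bracketing concentrations, or set to the highest concentration if not reached. Abbreviation: GI50, concentration required for 50% inhibition of growth. TGI marks complete inhibition of growth.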

Tests used:
Assay in all cases: NCI tumour cell line growth inhibition, 48 h
OVCAR-8 ovarian = system: OVCAR-8 ovarian
SK-MEL-28 melanoma = system: SK-MEL-28 melanoma
PC-3 prostate = system: PC-3 prostate
LOX IMVI melanoma = system: LOX IMVI melanoma
NCI-H522 lung = system: NCI-H522 lung
HL-60(TB) leukemia = system: HL-60(TB) leukemia
MALME-3M melanoma = system: MALME-3M melanoma
COLO 205 colon = system: COLO 205 colon
DU-145 prostate = system: DU-145 prostate
NCI-H226 lung = system: NCI-H226 lung

Row | Structure (SMILES) | TGI (OVCAR-8 ovarian) [µM] | TGI (SK-MEL-28 melanoma) [µM] | TGI (PC-3 prostate) [µM] | TGI (LOX IMVI melanoma) [µM] | TGI (NCI-H522 lung) [µM] | TGI (HL-60(TB) leukemia) [µM] | TGI (MALME-3M melanoma) [µM] | TGI (COLO 205 colon) [µM] | TGI (DU-145 prostate) [µM] | TGI (NCI-H226 lung) [µM] | GI50 (MALME-3M melanoma) [µM]
1 | CCc1nc2c(c(N(C)C)c1C(=O)OC)CCc1ccccc1-2 | > 100 | > 100 | 40 | > 100 | 45.6 | 9.43 | > 100 | 41.8 | 40.9 | 79 | –
2 | CC1=C(C)SC(=C2Sc3c(n(C)c(=O)n(C)c3=O)S2)S1 | 64.5 | > 100 | > 100 | > 100 | > 100 | > 100 | > 100 | > 100 | > 100 | 48.5 | –
3 | Cc1cc(-c2cc(C(C)(C)C)c(O)c(C(C)(C)C)c2)c(C)cc1-c1cc(C(C)(C)C)c(O)c(C(C)(C)C)c1 | > 100 | > 100 | > 100 | > 100 | > 100 | > 100 | > 100 | > 100 | > 100 | > 100 | –
4 | CC(=O)Oc1ccn2nc(C)c(Br)c2c1 | > 100 | > 100 | > 86.5 | > 100 | 97.1 | > 86.5 | > 100 | 75.5 | > 100 | > 100 | –
5 | NC(=O)C1CCN(Cc2c(Cl)c(Cl)c(CN3CCC(C(N)=O)CC3)c(Cl)c2Cl)CC1 | > 100 | > 100 | > 100 | > 100 | > 100 | > 100 | > 100 | > 100 | > 100 | > 100 | –
6 | COC1(CC[C@H](C)COC2OC(CO)C(O)C(O)C2O)O[C@H]2C[C@H]3[C@@H]4CC=C5C[C@@H](OC6OC(CO)C(OC7OC(C)C(O)C(O)C7O)C(O)C6OC6OC(C)C(O)C(O)C6O)CC[C@]5(C)[C@H]4CC[C@]3(C)[C@H]2[C@@H]1C (stereo partly specified) | 10.1 | 15.8 | 11.9 | 3.6 | 5.31 | 46.6 | 9.15 | 64 | 5.77 | 31.7 | –
7 | CC1=NN2C(=N)/C(=C/c3ccc(F)cc3)C(=O)N=C2S1 | > 100 | > 100 | > 100 | > 100 | > 100 | > 100 | > 100 | > 100 | > 100 | > 100 | –
8 | CS(=O)(=O)Nc1ccc2ccccc2c1 | > 100 | > 100 | > 100 | > 100 | > 100 | > 100 | > 100 | > 100 | > 100 | > 100 | –
9 | CC[C@H](NC(=O)OC(C)(C)C)C(=O)NCP(=O)(OCc1ccc([N+](=O)[O-])cc1)OCc1ccc([N+](=O)[O-])cc1 | > 100 | 92.9 | > 100 | > 100 | > 100 | 62.2 | > 100 | 30 | > 100 | > 100 | –
10 | CCC1(CC)C(=O)N(C(=O)c2cc(OC)c(OC)c(OC)c2)N(C(=O)c2cc(OC)c(OC)c(OC)c2)C1=O | > 50 | > 50 | > 50 | > 50 | > 50 | > 50 | > 50 | > 50 | > 50 | > 50 | –
11 | CC1(C)OCC(C2OC(C)(C)OC2[C@H]2O[C@@]3(O)[C@H]4[C@H](C=CC[C@@H]42)[C@@H](OCc2ccccc2)[C@H](OCc2ccccc2)[C@H]3OCc2ccccc2)O1 (stereo partly specified) | > 100 | > 100 | > 100 | > 100 | > 100 | 42.4 | > 100 | > 100 | > 100 | > 100 | –
12 | O=C(NC(C(F)(F)F)(C(F)(F)F)P(=O)(Cc1ccccc1)Cc1ccccc1)C(C(F)(F)F)C(F)(F)F | 46.5 | 53.1 | 49 | 35.2 | 60.4 | 71.3 | 47.1 | 38 | > 100 | 32.4 | –
13 | CCOC(=O)C(NC(=O)c1cccc(Cl)c1)(Nc1cccc(C)c1)C(F)(F)F (stereo unspecified) | 61 | 35.1 | 43.6 | 30.7 | 20.5 | > 100 | 30.4 | 36.2 | 99.6 | 30.7 | –
14 | COc1cc2c(c(OC)c1)[C@H](C)N(Cc1ccccc1)C(C)C2 (stereo partly specified) | > 100 | > 100 | > 100 | > 100 | > 100 | 24.8 | > 100 | > 100 | > 100 | 84.6 | –
15 | N#C/C(C(=O)NCc1ccccc1)=C(/N)N1CCCC1 | > 100 | > 100 | > 100 | > 100 | > 100 | > 100 | > 100 | > 100 | > 100 | > 100 | –
16 | c1ccc2c(c1)cc1ccc3cccc4ccc2c1c34 | > 100 | > 100 | > 100 | > 100 | > 100 | > 100 | > 100 | > 100 | > 100 | > 100 | > 100
